In series [1] the test system is Cushing syndrome patients. The settings on record: patients treated with either mifepristone or metyrapone; cited from earlier work.
The subject of series [2] is Cushing syndrome patients. In words: Adverse events with other medical therapies for Cushing syndrome. It counts as in vivo, human. The settings on record: one patient treated previously with mifepristone.

We go through 2 compounds from patent US12097192B2 (Corcept Therapeutics Incorporated, priority 2019, dated 2024).

As for `CC(C)(C(=O)c1cccnc1)c1cccnc1` [metyrapone], the drug induced hypokalemia entry in series [1] is “commonly seen adverse event”.

For the compound `CC#C[C@]1(O)CC[C@H]2[C@@H]3CCC4=CC(=O)CCC4=C3[C@@H](c3ccc(N(C)C)cc3)C[C@@]21C` [mifepristone], the “adverse event on previous therapy” value in series [2] was “developed endometrial hypertrophy”.
